Assays:
MCF-10A cells = assay: cells; conditions: read-out: IC50, MCF-10A cells; 48 h treatment, WST-1
Experimental: (§1) Cancer and normal cells (1 × 10^4 cells/well) were seeded in 96-well plates, incubated for 24 h, and then treated with increasing concentrations of AGM-330, PTX, and AGM-330-PTX for 48 h. Cell viability was assessed by the CellVia WST-1 assay (Young In Frontier) according to the manufacturer's instructions. The numbers of viable cells were measured at a wavelength of 450 nm using a VersaMax ELISA plate reader (Molecular Devices, San Jose, CA, USA).
(§2) Figure S3. A-C, Cancer and normal cells (1 × 10^4 cells/well) were seeded in 96-well plates. After 24 h of incuba-tion, the cells were treated with an increasing concentration of dimeric or tetrameric AGM-330 for 48 h. The viability of cells grown in 0 % FBS (A), 5 % FBS (B) or 10 % FBS (C) was assessed by a CellVia WST-1 assay (Young In Frontier, Seoul, Korea) according to the manufacturer’s instruction. The numbers of viable cells were measured at a wavelength of 450 nm using an VersaMax ELISA plate reader (Molecular Devices). D, E, Binding specificity of AGM-330. A whole-cell binding assay was performed to determine the cell binding of AGM-330 in 1 % FBS (D) or 5 % FBS (E). Scale bar, 200 μm.

MDA-MB-231 cells = assay: cells; conditions: read-out: IC50, MDA-MB-231 cells; 48 h treatment, WST-1
Experimental: as §1, §2

MDA-MB-231-luc xenograft = assay: Tumorigenesis experiment, MDA-MB-231-luc breast cancer xenograft; conditions: 16.68 mg/kg (molar equivalent to 2 mg/kg of PTX), tail vein twice a week, n = 5
Experimental: All animal experiments were performed in accordance with IACUC guidelines (GIST-2019-040). For tumorigenesis experiments, anesthetized 6-week-old female NOD-scid Il2rg^-^/^- mice (NPG^TM, VITALSTAR) were inoculated in the mammary fat pad with 1 × 10^6 MDA-MB-231-luc cells in a 100 μl volume (n = 5 for each group). After tumor cell inoculation, when the tumor volume reached approximately 100 mm^3, the mice were randomly divided into the following five groups: (i) control, (ii) low-dose paclitaxel (2 mg/kg), (iii) high-dose paclitaxel (10 mg/kg), (iv) AGM-330 (16.68 mg/kg, molar equivalent to 2 mg/kg of PTX), and (v) AGM-330-PTX (19.05 mg/kg, molar equivalent to 2 mg/kg of PTX). The tumor size was measured twice a week, and the tumor volume was calculated with the following formula: volume (mm^3) = [length (mm)] × [width (mm)]^2 × 0.5. For the bioluminescent imaging experiment, D-luciferin (150 mg/kg; PerkinElmer) was intraperitoneally injected into each mouse, and an IVIS 100 imaging system (Xenogen, Corporation, Alameda, CA) was used for bioluminescent monitoring. Mice were anesthetized with vaporized isofurane (BK Pharm, Ilsan, Korea) and placed in an imaging chamber. After 10 min, each animal was imaged with an exposure time of 1 min. All bioluminescent image data were obtained using Living Image software (version 4.5.2, PerkinElmer). Photons detected from tumors were converted to average radiance values (photon/sec/cm^2/sr), which are quantitative data obtained from a region of […] (ROI) and include the photons emitted by bioluminescent cells from an assigned rectangular area over the whole body of each mouse.
A, Cell proliferation inhibition by AGM-330-PTX treatment was determined for 48 h by the WST assay in multiple breast and colorectal cancer cells and in normal cells. B, Schematic representation of the experimental protocol as described in the materials and methods section. Anesthetized 6‑week-old […] NPG mice were inoculated with a 1:1 mix of Matrigel and 1 × 10^6 MDA-MB-231-luc cells into the mammary fat pad. When the volume of primary tumors reached approximately 100 mm^3, tumor-bearing mice were treated with vehicle (PBS), PTX (2 or 10 mg/kg), AGM-330 (16.68 mg/kg, molar equivalent to 2 mg/kg of PTX), or AGM-330-PTX (19.05 mg/kg, molar equivalent to 2 mg/kg of PTX; n = 5/group). C-E, The therapeutic effect of AGM-330-PTX was evaluated in breast cancer xenograft models. C, Primary tumor volume was measured twice a week until the day of sacrifice. The primary tumor volume was calculated by the formula volume (mm^3) = (length (mm)) × (width (mm))^2 × 0.5. D, On the day of sacrifice, all primary tumors were isolated, and (E) the primary tumor weights were evaluated. F-I, Immunohistochemistry (IHC) sections of representative tumors with Ki-67 (F,H) and TUNEL (G,I) staining. Nuclei were stained with DAPI (blue). Scale bar, 50 µm. Bar graphs represent the mean ± SD, and statistical analyses were performed by one-way ANOVA with Dunnett's multiple comparison. *, **, and *** indicate P < 0.05, P < 0.01, and P < 0.001, respectively.
Following in vitro proliferation analysis on cancer lines, we investigated whether AGM-330-PTX could be a potential therapeutic agent in vivo. We inoculated MDA-MB-231-luc cells into the mammary fat pad of NPG mice. After the […] tumors grew to 100 mm^3, comparative efficacy studies were performed by dividing the animals into five groups (n = 5/group) treated with vehicle (PBS), PTX (2 or 10 mg/kg, respectively), AGM-330 (16.68 mg/kg, molar equivalent to 2 mg/kg of PTX), or AGM-330-PTX (19.05 mg/kg, molar equivalent to 2 mg/kg of PTX) twice a week by tail vein injection (Figure 5B). Tumor growth was monitored by measuring volumes twice a week with a caliber rule over the course of 3 weeks.
Figure S11. A-E, NPG TM mice bearing MDA-MB-231-luc tumors were treated twice a week for 21 days with […]

**Q.** With `CSCC[C@H](NC(=O)[C@H](C)NC(=O)CNC(=O)[C@H](Cc1c[nH]cn1)NC(=O)[C@@H](N)CCCNC(=N)N)C(=O)N[C@H](C(=O)N[C@@H](Cc1ccc(O)cc1)C(=O)N[C@@H](CC(C)C)C(=O)N[C@@H](CCCCN)C(=O)NCCOCCOCCOCCOCCOCCOCCOCCOCCOCCOCCOCCOCCC(=O)NCCCC[C@H](NC(=O)CCOCCOCCOCCOCCOCCOCCOCCOCCOCCOCCOCCOCCNC(=O)[C@H](CCCCN)NC(=O)[C@H](CC(C)C)NC(=O)[C@H](Cc1ccc(O)cc1)NC(=O)[C@@H](NC(=O)[C@H](CCSC)NC(=O)[C@H](C)NC(=O)CNC(=O)[C@H](Cc1c[nH]cn1)NC(=O)[C@@H](N)CCCNC(=N)N)C(C)C)C(=O)NCCCC[C@H](NC(=O)[C@H](CCCCNC(=O)CCOCCOCCOCCOCCOCCOCCOCCOCCOCCOCCOCCOCCNC(=O)[C@H](CCCCN)NC(=O)[C@H](CC(C)C)NC(=O)[C@H](Cc1ccc(O)cc1)NC(=O)[C@@H](NC(=O)[C@H](CCSC)NC(=O)[C@H](C)NC(=O)CNC(=O)[C@H](Cc1c[nH]cn1)NC(=O)[C@@H](N)CCCNC(=N)N)C(C)C)NC(=O)CCOCCOCCOCCOCCOCCOCCOCCOCCOCCOCCOCCOCCNC(=O)[C@H](CCCCN)NC(=O)[C@H](CC(C)C)NC(=O)[C@H](Cc1ccc(O)cc1)NC(=O)[C@@H](NC(=O)[C@H](CCSC)NC(=O)[C@H](C)NC(=O)CNC(=O)[C@H](Cc1c[nH]cn1)NC(=O)[C@@H](N)CCCNC(=N)N)C(C)C)C(=O)N[C@@H](CS)C(=O)O)C(C)C` [AGM-330] as the molecule, how does the IC50 (MCF-10A cells) read?
**A.** > 100 µM

**Q.** And the IC50 (MDA-MB-231 cells)?
**A.** > 100 µM

**Q.** And the “average tumor volume versus vehicle (PBS)-treated mice” value (MDA-MB-231-luc xenograft)?
**A.** no significant difference
